Source: US20200085791A1, “[(PHENYLSULFONYL)OCTAHYDRO-EPIMINOISOINDOL-YL](1H-1,2,3-TRIAZOL-5-YL)METHANONES” (Bayer Pharma Aktiengesellschaft, priority 2016, published 2020)

Biological target: T1, recombinant human AKR1C3 (Aldo-keto reductase family 1 member C3) (Homo sapiens, UniProt P42330)
T1 construct: GST (cleaved yes); made in house; host or cells: E. coli
T1 sequence (P42330 1-323): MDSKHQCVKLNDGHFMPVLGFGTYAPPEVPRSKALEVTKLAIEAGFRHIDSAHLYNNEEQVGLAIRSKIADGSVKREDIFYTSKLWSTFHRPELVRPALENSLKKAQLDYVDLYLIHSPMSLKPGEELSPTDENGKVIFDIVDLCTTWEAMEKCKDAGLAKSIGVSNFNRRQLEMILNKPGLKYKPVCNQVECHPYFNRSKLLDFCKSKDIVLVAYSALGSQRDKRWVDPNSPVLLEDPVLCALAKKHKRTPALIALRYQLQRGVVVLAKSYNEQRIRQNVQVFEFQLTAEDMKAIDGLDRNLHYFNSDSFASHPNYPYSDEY
Test: In Vitro Assay 1: AKR1C3-inhibitory activity (Coumberone to Coumberol fluorescence assay)
Type: biochemical
Settings: recombinant enzyme, Coumberone 0.3 μM, NADPH 10 μM, 15 min pre-incubation, 4-parameter fit; average or median values
Experimental: In Vitro Assay 1: AKR1C3-Inhibitory Activity
The AKR1C3-inhibitory activity of the substances of the present invention was measured in the AKR1C3 assay described in the paragraphs below.
Essentially, the enzyme activity is measured by quantification of the Coumberol from Coumberone (Halim, M., Yee, D. J., and Sames, D., J. AM. CHEM. SOC. 130, 14123-14128 (2008) and Yee, D. J., Balsanek, V., Bauman, D. R., Penning, T. M., and Sames, D., Proc. Natl. Acad. Sci. USA 103, 13304-13309 (2006)). In this test, the increase of the highly fluorescent Coumberol by NADPH- (nicotinamide adenine dinucleotide phosphate)-dependent reduction of the non-fluorescent Coumberone by AKR1C3 can be determined.
The enzyme used was recombinant human AKR1C3 (Aldo-keto reductase family 1 member C3) (GenBank Accession No. NM_003739). This was expressed in E. coli as GST (glutathione S transferase) fusion protein and purified by glutathione Sepharose affinity chromatography. The GST was removed by digestion with thrombin and subsequent size exclusion chromatography (Dufort, I., Rheault, P., Huang, X F., Soucy, P., and Luu-The, V., Endocrinology 140, 568-574 (1999)).
For the assay, 50 nl of a 100-fold concentrated solution of the test substance in DMSO were pipetted into a black low-volume 384-well microtiter plate (Greiner Bio-One, Frickenhausen, Germany), 2.5 μl of a solution of AKR1C3 in assay buffer [50 mM potassium phosphate buffer pH 7, 1 mM DTT, 0.0022% (w/v) Pluronic F-127, 0.01% BSA (w/v) and protease inhibitor cocktail (Complete, EDTA-free Protease Inhibitor Cocktail from Roche)] were added and the mixture was incubated for 15 min to allow pre-binding of the substances to the enzyme prior to the enzyme reaction. The enzyme reaction was then started by addition of 2.5 μl of a solution of NADPH (20 μM→final concentration in 5 μl of assay volume is 10 μM) and Coumberone (0.6 μM→final concentration in 5 μl of assay volume is 0.3 μM) in assay buffer, and the resulting mixture was incubated at […] for the reaction time of typically 90 min. The concentration of the AKR1C3 and the reaction time was adapted to the respective activity of the enzyme preparation and adjusted such that the assay was carried out in the linear range.
Typical AKR1C3 concentrations were in the region of 1 nM. The reaction was stopped by addition of 2.5 μl of a stop solution consisting of the inhibitor EM-1404 [F. Labrie et al. U.S. Pat. No. 6,541,463, 2003] (3 μM→final concentration in 7.5 μl of assay volume is 1 μM). The fluorescence of the Coumberole was then measured at 520 nm (excitation at 380 nm) using a suitable measuring instrument (Pherastar from BMG Labtechnologies). The intensity of the fluorescence was used as a measure of the amount of Coumberole formed and thus of the enzyme activity of AKR1C3. The data were normalized (enzyme reaction without inhibitor—0% inhibition; all other assay components, but no enzyme=100% inhibition).

IC50 [nM] | SMILES
174 | O=C(c1cnn[nH]1)N1C[C@@H]2[C@H](C1)[C@H]1CC[C@@H]2N1S(=O)(=O)c1cccc([N+](=O)[O-])c1 [Example 33, {(3aR,4R,7S,7aS)-8-[(3-nitrophenyl)sulfonyl]octahydro-2H-4,7-epiminoisoindol-2-yl}(1H-1,2,3-triazol-5-yl)methanone]
27 | Cc1cc(C)c(S(=O)(=O)N2[C@@H]3CC[C@H]2[C@@H]2CN(C(=O)c4cnn[nH]4)C[C@@H]23)c(C)c1 [Example 34, 1H-1,2,3-triazol-5-yl{(3aR,4R,7S,7aS)-8-[(2,4,6-trimethylphenyl)sulfonyl]octahydro-2H-4,7-epiminoisoindol-2-yl}methanone]
4 | O=C(c1cnn[nH]1)N1C[C@@H]2[C@H](C1)[C@H]1CC[C@@H]2N1S(=O)(=O)c1ccccc1[N+](=O)[O-] [Example 35, {(3aR,4R,7S,7aS)-8-[(2-nitrophenyl)sulfonyl]octahydro-2H-4,7-epiminoisoindol-2-yl}(1H-1,2,3-triazol-5-yl)methanone]
935 | COc1ccc(OC)c(S(=O)(=O)N2[C@@H]3CC[C@H]2[C@@H]2CN(C(=O)c4cnn[nH]4)C[C@@H]23)c1 [Example 36, {(3aR,4R,7S,7aS)-8-[(2,5-dimethoxyphenyl)sulfonyl]octahydro-2H-4,7-epiminoisoindol-2-yl}(1H-1,2,3-triazol-5-yl)methanone]
82 | O=C(c1cnn[nH]1)N1C[C@@H]2[C@H](C1)[C@H]1CC[C@@H]2N1S(=O)(=O)c1ccc(Cl)c(Cl)c1 [Example 37, {(3aR,4R,7S,7aS)-8-[(3,4-dichlorophenyl)sulfonyl]octahydro-2H-4,7-epiminoisoindol-2-yl}(1H-1,2,3-triazol-5-yl)methanone]
193 | CCc1ccc(S(=O)(=O)N2[C@@H]3CC[C@H]2[C@@H]2CN(C(=O)c4cnn[nH]4)C[C@@H]23)cc1 [Example 38, {(3aR,4R,7S,7aS)-8-[(4-ethylphenyl)sulfonyl]octahydro-2H-4,7-epiminoisoindol-2-yl}(1H-1,2,3-triazol-5-yl)methanone]
4 | O=C(c1cnn[nH]1)N1C[C@@H]2[C@H](C1)[C@H]1CC[C@@H]2N1S(=O)(=O)c1ccc(F)cc1Cl [Example 39, {(3aR,4R,7S,7aS)-8-[(2-chloro-4-fluorophenyl)sulfonyl]octahydro-2H-4,7-epiminoisoindol-2-yl}(1H-1,2,3-triazol-5-yl)methanone]
3 | Cc1cccc(Cl)c1S(=O)(=O)N1[C@@H]2CC[C@H]1[C@@H]1CN(C(=O)c3cnn[nH]3)C[C@@H]12 [Example 40, {(3aR,4R,7S,7aS)-8-[(2-chloro-6-methylphenyl)sulfonyl]octahydro-2H-4,7-epiminoisoindol-2-yl}(1H-1,2,3-triazol-5-yl)methanone]
731 | COc1ccc(S(=O)(=O)N2[C@@H]3CC[C@H]2[C@@H]2CN(C(=O)c4cnn[nH]4)C[C@@H]23)cc1OC [Example 41, {(3aR,4R,7S,7aS)-8-[(3,4-dimethoxyphenyl)sulfonyl]octahydro-2H-4,7-epiminoisoindol-2-yl}(1H-1,2,3-triazol-5-yl)methanone]
7 | O=C(c1cnn[nH]1)N1C[C@@H]2[C@H](C1)[C@H]1CC[C@@H]2N1S(=O)(=O)c1cccc(Cl)c1Cl [Example 42, {(3aR,4R,7S,7aS)-8-[(2,3-dichlorophenyl)sulfonyl]octahydro-2H-4,7-epiminoisoindol-2-yl}(1H-1,2,3-triazol-5-yl)methanone]
855 | N#Cc1ccc(S(=O)(=O)N2[C@@H]3CC[C@H]2[C@@H]2CN(C(=O)c4cnn[nH]4)C[C@@H]23)cc1 [Example 43, 4-{[(3aR,4R,7S,7aS)-2-(1H-1,2,3-triazol-5-ylcarbonyl)octahydro-1H-4,7-epiminoisoindol-8-yl]sulfonyl}benzonitrile]
58 | N#Cc1ccccc1S(=O)(=O)N1[C@@H]2CC[C@H]1[C@@H]1CN(C(=O)c3cnn[nH]3)C[C@@H]12 [Example 44, 2-{[(3aR,4R,7S,7aS)-2-(1H-1,2,3-triazol-5-ylcarbonyl)octahydro-1H-4,7-epiminoisoindol-8-yl]sulfonyl}benzonitrile]

Continued, compound first:

SMILES | IC50 [nM]
Cc1cccc(S(=O)(=O)N2[C@@H]3CC[C@H]2[C@H]2CN(C(=O)c4cnn[nH]4)C[C@H]23)c1 [Example 23, {(3aR,4S,7R,7aS)-8-[(3-methylphenyl)sulfonyl]octahydro-2H-4,7-epiminoisoindol-2-yl}(1H-1,2,3-triazol-5-yl)methanone] | 39
Cc1cc(C)cc(S(=O)(=O)N2[C@@H]3CC[C@H]2[C@H]2CN(C(=O)c4cnn[nH]4)C[C@H]23)c1 [Example 24, {(3aR,4S,7R,7aS)-8-[(3,5-dimethylphenyl)sulfonyl]octahydro-2H-4,7-epiminoisoindol-2-yl}(1H-1,2,3-triazol-5-yl)methanone] | 66
O=C(c1cnn[nH]1)N1C[C@@H]2[C@H](C1)[C@@H]1CC[C@H]2N1S(=O)(=O)c1ccc(F)c(F)c1 [Example 25, {(3aR,4S,7R,7aS)-8-[(3,4-difluorophenyl)sulfonyl]octahydro-2H-4,7-epiminoisoindol-2-yl}(1H-1,2,3-triazol-5-yl)methanone] | 132
N#Cc1cccc(S(=O)(=O)N2[C@@H]3CC[C@H]2[C@H]2CN(C(=O)c4cnn[nH]4)C[C@H]23)c1 [Example 26, 3-{[(3aR,4S,7R,7aS)-2-(1H-1,2,3-triazol-5-ylcarbonyl)octahydro-1H-4,7-epiminoisoindol-8-yl]sulfonyl}benzonitrile] | 322
O=C(c1cnn[nH]1)N1[C@@H]2CC[C@H]1[C@H]1CN(S(=O)(=O)c3cccc(F)c3)C[C@H]12 [Example 27, {(3aR,4S,7R,7aS)-2-[(3-fluorophenyl)sulfonyl]octahydro-1H-4,7-epiminoisoindol-8-yl}(1H-1,2,3-triazol-5-yl)methanone] | 2
O=C(c1cnn[nH]1)N1[C@@H]2CC[C@H]1[C@H]1CN(S(=O)(=O)c3cc(Cl)cc(Cl)c3)C[C@H]12 [Example 28, {(3aR,4S,7R,7aS)-2-[(3,5-dichlorophenyl)sulfonyl]octahydro-1H-4,7-epiminoisoindol-8-yl}(1H-1,2,3-triazol-5-yl)methanone] | 21
O=C(c1cnn[nH]1)N1[C@@H]2CC[C@H]1[C@H]1CN(S(=O)(=O)c3ccccc3C(F)(F)F)C[C@H]12 [Example 29, 1H-1,2,3-triazol-5-yl[(3aR,4S,7R,7aS)-2-{[2-(trifluoromethyl)phenyl]sulfonyl}octahydro-1H-4,7-epiminoisoindol-8-yl]methanone] | 9
O=C(c1cnn[nH]1)N1C[C@@H]2[C@H](C1)[C@H]1CC[C@@H]2N1S(=O)(=O)c1ccc(Br)cc1 [Example 30, ((3aR,4R,7S,7aS)-8-[(4-bromophenyl)sulfonyl]octahydro-2H-4,7-epiminoisoindol-2-yl)(1H-1,2,3-triazol-5-yl)methanone] | 193
O=C(c1cnn[nH]1)N1C[C@@H]2[C@H](C1)[C@H]1CC[C@@H]2N1S(=O)(=O)c1ccc(Cl)cc1 [Example 31, {(3aR,4R,7S,7aS)-8-[(4-chorophenyl)sulfonyl]octahydro-2H-4,7-epiminoisoindol-2-yl}(1H-1,2,3-triazol-5-yl)methanone] | 174
O=C(c1cnn[nH]1)N1C[C@@H]2[C@H](C1)[C@H]1CC[C@@H]2N1S(=O)(=O)c1ccc([N+](=O)[O-])cc1 [Example 32, {(3aR,4R,7S,7aS)-8-[(4-nitrophenyl)sulfonyl]octahydro-2H-4,7-epiminoisoindol-2-yl}(1H-1,2,3-triazol-5-yl)methanone] | 420
